Usually Ki stands for a measure of affinity in units of concentration, obtained from inhibition or displacement. Low values mean a stronger hold on the target, high ones a looser hold on the target.

In patent publication US7829589B2, “Sulfonamide compounds and uses thereof” (Elixir Pharmaceuticals, Inc., priority 2005, dated 2010) one finds Ki data, which are given here for twelve molecules.

GHS-R, sequence (Q92847 whole entry, species assumed): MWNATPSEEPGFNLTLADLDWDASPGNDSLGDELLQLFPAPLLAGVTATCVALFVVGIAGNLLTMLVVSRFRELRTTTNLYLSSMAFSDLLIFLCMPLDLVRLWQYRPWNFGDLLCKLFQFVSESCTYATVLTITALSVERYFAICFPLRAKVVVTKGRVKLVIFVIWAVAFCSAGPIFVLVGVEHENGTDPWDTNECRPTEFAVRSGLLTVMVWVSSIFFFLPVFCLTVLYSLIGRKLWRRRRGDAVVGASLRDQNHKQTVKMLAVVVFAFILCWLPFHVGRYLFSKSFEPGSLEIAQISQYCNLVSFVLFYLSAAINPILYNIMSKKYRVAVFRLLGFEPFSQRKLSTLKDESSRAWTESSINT

The assay addresses GHS-R (Homo sapiens, UniProt Q92847). In words: GHS-R antagonist activity (Ki) in a cell based assay. As for the experimental part:
Cell-Based Activity Assays. For example, the ability of the compound to modulate accumulation of a second messenger signaling component downstream of GHS-R can be evaluated. For example, inositol phosphates (IP), as a result of Gq signaling in a mammalian cell, e.g., a Cos-7 cells. Other tissue culture cells, Xenopus oocytes, and primary cells can also be used.
Phosphatidylinositol turnover assay. One day after transfection COS-7 cells are incubated for 24 hours with 5 μCi of [^3H]-myo-inositol in 1 ml medium supplemented with 10% fetal calf serum, 2 mM glutamine and 0.01 mg/ml gentamicin per well. Cells are then washed twice in buffer, 20 mM HEPES, pH 7.4, supplemented with 140 mM NaCl, 5 mM KCl, 1 mM MgSO4, 1 mM CaCl2, 10 mM glucose, 0.05% (w/v) bovine serum; and incubated in 0.5 ml buffer supplemented with 10 mM LiCl at 37° C. for 30 min. For some assays, it is also useful to incubate the cells with adenosine deaminase ADA (200 U/mg, Boehringer Mannheim, Germany) for 30 min in a concentration of 1 U/ml.
After incubation with the compound of interest for 45 min at 37° C., cells are extracted with 10% ice-cold perchloric acid and placed on ice for 30 min. The resulting supernatants are neutralized with KOH in HEPES buffer, and [^3H]-inositol phosphate is purified on Bio-Rad AG 1-X8 anion exchange resin as described. Assays can be run in duplicate, triplicate, etc. […]
For the molecule `CCN(CC)CCCS(=O)(=O)N[C@H](CCc1ccccc1)c1nc(Cc2ccc3c(c2)OCO3)n[nH]1` [Compound 30, 3-Diethylamino-propane-1-sulfonic acid [(R)-1-(5-benzo[1,3]dioxol-5-ylmethyl-2H-[1,2,4]triazol-3-yl)-3-phenyl-propyl]-amide], the Ki is below 100 nM.

The molecule `CCN(CC)CCCS(=O)(=O)N[C@H](CCc1ccccc1)c1nc(-c2cccnc2Cl)no1` [Compound 31, 3-Diethylamino-propane-1-sulfonic acid {(R)-1-[3-(2-chloro-pyridin-3-yl)-[1,2,4]oxadiazol-5-yl]-3-phenyl-propyl}-amide] yielded a Ki below 100 nM.

Regarding `CCN(CC)CCCS(=O)(=O)N[C@H](CCc1ccccc1)c1nc(Cc2ccc(OC)c(OC)c2)n[nH]1` [Compound 32, 3-Diethylamino-propane-1-sulfonic acid {(R)-1-[5-(3,4-dimethoxy-benzyl)-2H-[1,2,4]triazol-3-yl]-3-phenyl-propyl}-amide], the Ki is below 100 nM.

Take `CCN(CC)CCCS(=O)(=O)N[C@H](COCc1ccccc1)c1nc(-c2ccccc2C)no1` [Compound 33, 3-Diethylamino-propane-1-sulfonic acid [(R)-2-benzyloxy-1-(3-o-tolyl-[1,2,4]oxadiazol-5-yl)-ethyl]-amide]: the inhibition constant Ki was at least 1000 nM.

`CCN(CC)CCCS(=O)(=O)N[C@H](COCc1ccccc1)c1nc(-c2ncccc2C)no1` [Compound 34, 3-Diethylamino-propane-1-sulfonic acid {(R)-2-benzyloxy-1-[3-(3-methyl-pyridin-2-yl)-[1,2,4]oxadiazol-5-yl]-ethyl}-amide] returned a Ki of 500 to 1000 nM.

As for `CCN(CC)C1CCC(S(=O)(=O)N[C@H](CCc2ccccc2)c2nnc(-c3ccc(F)cc3)[nH]2)CC1` (stereo partly drawn) [Compound 35, 4-Diethylamino-cyclohexanesulfonic acid {(R)-1-[5-(4-fluoro-phenyl)-4H-[1,2,4]triazol-3-yl]-3-phenyl-propyl}-amide], the Ki lay within 100 to 500 nM.

`CCN(CC)CCS(=O)(=O)N[C@H](CCc1ccccc1)c1nc(-c2c(C)cccc2C)no1` [Compound 36, 2-Diethylamino-ethanesulfonic acid {(R)-1-[3-(2,6-dimethyl-phenyl)-[1,2,4]oxadiazol-5-yl]-3-phenyl-propyl}-amide] registered a Ki of at least 1000 nM.

In the case of `CCN(CC)CCCS(=O)(=O)N[C@H](CCc1ccccc1)c1nc(-c2c(OC)cccc2OC)no1` [Compound 37, 3-Diethylamino-propane-1-sulfonic acid {(R)-1-[3-(2,6-dimethoxy-phenyl)-[1,2,4]oxadiazol-5-yl]-3-phenyl-propyl}-amide], the Ki was in the range of 500 to 1000 nM.

With `CCN(CC)CCCS(=O)(=O)N[C@H](CCc1ccccc1)c1nc(-c2c[nH]c3ccccc23)n[nH]1` [Compound 38, 3-Diethylamino-propane-1-sulfonic acid {(R)-1-[5-(1H-indol-3-yl)-2H-[1,2,4]triazol-3-yl]-3-phenyl-propyl}-amide], the Ki is below 100 nM.

`CCN(CC)CCCS(=O)(=O)N[C@H](CCc1ccccc1)c1nc(-c2ccccn2)no1` [Compound 39, 3-Diethylamino-propane-1-sulfonic acid [(R)-3-phenyl-1-(3-pyridin-2-yl-[1,2,4]oxadiazol-5-yl)-propyl]-amide] had a Ki of 500 to 1000 nM.

Take `CCN(CC)CCCS(=O)(=O)N[C@H](CCc1ccccc1)c1nc(-c2ccc(C#N)cc2)n[nH]1` [Compound 40, 3-Diethylamino-propane-1-sulfonic acid {(R)-1-[5-(4-cyano-phenyl)-2H-[1,2,4]triazol-3-yl]-3-phenyl-propyl}-amide]: the Ki is below 100 nM.

For the molecule `CCN(CC)CCCS(=O)(=O)N[C@H](CCc1ccccc1)c1nc(-c2cccnc2)no1` [Compound 41, 3-Diethylamino-propane-1-sulfonic acid [(R)-3-phenyl-1-(3-pyridin-3-yl-[1,2,4]oxadiazol-5-yl)-propyl]-amide], the Ki lay in the range of 100 to 500 nM.
